Measured values taken from patent US7514435B2, “Pyrrolotriazine kinase inhibitors” (Bristol-Myers Squibb Company, priority 2005, dated 2009).

How the values were obtained:
TrkB = target: T1, TrkB (Homo sapiens, UniProt Q16620); assay: TrkB tyrosine kinase inhibition, recombinant enzyme, polyGluTyr phosphorylation (33P-ATP filter assay); format: biochemical; conditions: kinase domain of human TrkB (amino acids 526-838), His-fusion; 0.1 mg/ml PGT, 30 uM ATP, 1 hour at 30° C.
T1 construct: The kinase domain of the human TrkB receptor (amino acids 526-838); His; purchased Invitrogen; host or cells: insect cells
Experimental: The ability of compounds of the invention to inhibit tyrosine kinase activity of TrkB may be measured using a recombinant enzyme in an assay that measures the ability of compounds to inhibit the phosphorylation of the exogenous substrate, polyGluTyr (PGT, 4:1). The kinase domain of the human TrkB receptor (amino acids 526-838) is expressed in insect cells as a histidine (His)-fusion protein and is commercially available from Invitrogen™. The enzyme assay is performed in a 96-well plate. Test compounds are first dissolved in dimethylsulfoxide (DMSO) and then serially-diluted in a 96-well plate. The serially-diluted compounds are transferred to the 96-well assay plate so that the final concentration of DMSO in the enzyme assay is 1.64%. All assay components are diluted in phosphorylation buffer (20 mm MOPS, 10 mM MgCl2, 1 mM EDTA, 0.015% Brij-35, 0.1 mg/ml BSA, 0.0025% Beta-Mercaptoethanol). The recombinant enzyme is added to the assay plate containing test compound and the reaction is initiated with a substrate solution containing a final concentration of 0.1 mg/ml PGT, 30 uM ATP, and 0.008 mCi/ml ^33P-gammaATP (3000 Ci/mmol)(Perkin Elmer™) After a 1 hour incubation at 30° C., the reaction is terminated with 10% TCA and incubated at 4° C. for 1 hour. The reaction is filtered onto a Unifilter® GF/C™ filter plate that has been presoaked with 0.1 M NaPyrophosphate. Microscint-20 is then added to the dried filter plate and the captured ^33P-phosphorylated PGT is quantitated on a microscintillation plate counter (TopCount·NXT™).

TrkA = target: T2, TrkA (Homo sapiens, UniProt P04629); assay: TrkA tyrosine kinase inhibition, recombinant enzyme, polyGluTyr phosphorylation (33P-ATP filter assay); format: biochemical; conditions: kinase domain of human TrkA, His-fusion; 0.1 mg/ml PGT, 30 uM ATP, 1 hour at 30° C.
T2 construct: The kinase domain of the human TrkA receptor is expressed in Sf9 insect cells as a histidine (His)-fusion protein; His; made in house; host or cells: Sf9 insect cells (baculovirus)
Excerpt: The ability of compounds of the invention to inhibit tyrosine kinase activity of TrkA may be measured using a recombinant enzyme in an assay that measures the ability of compounds to inhibit the phosphorylation of the exogenous substrate, polyGluTyr (PGT, 4:1). The kinase domain of the human TrkA receptor is expressed in Sf9 insect cells as a histidine (His)-fusion protein using a baculovirus expression system. The protein is purified from the lysates of these cells using an Ni-NTA affinity column. After the recombinant enzyme is purified, it is activated by incubation with cold ATP. The enzyme assay is performed in a 96-well plate. Test compounds are first dissolved in dimethylsulfoxide (DMSO) and then serially-diluted in a 96-well plate. The serially-diluted compounds are transferred to the 96-well assay plate so that the final concentration of DMSO in the enzyme assay is 1.64%. All assay components are diluted in phosphorylation buffer (20 mm MOPS, 10 mM MgCl2, 1 mM EDTA, 0.015% Brij-35, 0.1 mg/ml BSA, 0.0025% Beta-Mercaptoethanol). The recombinant enzyme is added to the assay plate containing test compound and the reaction is initiated with a substrate solution containing a final concentration of 0.1 mg/ml PGT, 30 uM ATP, and 0.008 mCi/ml ^33P-gammaATP (3000 Ci/mmol). After a 1 hour incubation at 30° C., the reaction is terminated with 10% TCA and incubated at 4° C. for 1 hour. The reaction is filtered onto a Unifilter® GF/C™ filter plate that has been presoaked with 0.1 M NaPyrophosphate. Microscint-20 is then added to the dried filter plate and the captured ^33P-phosphorylated PGT is quantitated on a microscintillation plate counter (TopCount·NXT™).

T1 sequence (Q16620 510-822): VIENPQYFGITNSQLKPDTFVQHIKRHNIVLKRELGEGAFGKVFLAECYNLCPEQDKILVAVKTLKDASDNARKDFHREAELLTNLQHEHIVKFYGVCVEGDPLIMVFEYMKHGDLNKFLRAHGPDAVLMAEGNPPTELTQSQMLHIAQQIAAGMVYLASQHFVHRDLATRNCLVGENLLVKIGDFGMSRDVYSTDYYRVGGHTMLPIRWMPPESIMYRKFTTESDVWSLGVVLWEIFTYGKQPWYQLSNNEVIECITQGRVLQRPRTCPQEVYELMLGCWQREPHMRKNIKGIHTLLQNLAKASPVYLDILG
T2 sequence (P04629 510-781 limits assumed): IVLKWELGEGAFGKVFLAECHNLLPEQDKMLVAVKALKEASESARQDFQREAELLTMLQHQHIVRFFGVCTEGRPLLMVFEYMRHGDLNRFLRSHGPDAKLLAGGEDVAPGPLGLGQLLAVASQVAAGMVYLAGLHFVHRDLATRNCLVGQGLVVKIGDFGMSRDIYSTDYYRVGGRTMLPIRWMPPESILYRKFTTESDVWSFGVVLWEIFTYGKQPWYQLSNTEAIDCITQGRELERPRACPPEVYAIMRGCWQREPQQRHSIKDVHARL

`CC(C)c1cc(C(=O)c2cccc(NC(=O)Nc3ccc(Cl)cc3Cl)c2)c2c(N)ncnn12` [Example 1, 1-{3-[(4-amino-7-isopropylpyrrolo [2,1-f][1,2,4]triazin-5-yl)carbonyl]phenyl}-3-(2,4-dichlorophenyl)urea] was tested, and the IC50 (TrkB) was 1 nM.
For `CC(C)c1cc(C(=O)c2cccc(NC(=O)NCC3CCCCC3)c2)c2c(N)ncnn12` [Example 37, 1-{3-[(4-amino-7-isopropyl-pyrrolo[2,1-f][1,2,4]triazin-5-yl)carbonyl]phenyl}-3-(cyclohexylmethyl)urea], the IC50 (TrkA) was 17 nM and the IC50 (TrkB) was 36 nM.
For `CC(C)c1cc(C(=O)c2cccc(NC(=O)Nc3ccc4ccccc4c3)c2)c2c(N)ncnn12` [Example 46, 1-{3-[(4-amino-7-isopropyl-pyrrolo[2,1-f][1,2,4]triazin-5-yl)carbonyl]phenyl}-3-(2-naphthyl)urea], the IC50 (TrkA) was less than 1 nM and the IC50 (TrkB) was 1 nM.
`CC(C)c1cc(C(=O)c2cccc(NC(=O)NCCCc3ccccc3)c2)c2c(N)ncnn12` [Example 61, 1-{3-[(4-amino-7-isopropyl-pyrrolo[2,1-f][1,2,4]triazin-5-yl)carbonyl]phenyl}-3-(3-phenylpropyl)urea] was tested, and the IC50 (TrkA) was 21 nM and the IC50 (TrkB) was 8 nM.
`CC(C)c1cc(C(=O)c2cccc(NC(=O)Nc3ccc(OCc4ccccc4)cc3)c2)c2c(N)ncnn12` [Example 33, 1-{3-[(4-amino-7-isopropyl-pyrrolo[2,1-f][1,2,4]triazin-5-yl)carbonyl]phenyl}-3-[4-(benzyloxy)phenyl]urea] gave an IC50 (TrkA) of 2 nM and an IC50 (TrkB) of 1 nM.
For `CC(C)c1cc(C(=O)c2cccc(NC(=O)Nc3ccncc3)c2)c2c(N)ncnn12` [Example 63, 1-{3-[(4-amino-7-isopropyl-pyrrolo[2,1-f][1,2,4]triazin-5-yl)carbonyl]phenyl}-3-pyridin-4-ylurea], the IC50 (TrkA) was 9 nM and the IC50 (TrkB) was 15 nM.
Compound `CN(C)CCCc1cc(C(=O)c2cccc(NC(=O)Nc3ccc(Cl)cc3Cl)c2)c2c(N)ncnn12` [Example 67, 1-[3-({4-amino-7-[3-(dimethylamino)propyl]Pyrrolo[2,1-f][1,2,4]triazin-5-yl}carbonyl)phenyl]-3-(2,4-dichlorophenyl)urea] has an IC50 (TrkA) of 3 nM and an IC50 (TrkB) of 1 nM.
Compound `CC(C)c1cc(C(=O)c2cccc(NC(=O)Nc3ccccc3)c2)c2c(N)ncnn12` [Example 9, 1-{3-[(4-amino-7-isopropyl-pyrrolo[2,1-f][1,2,4]triazin-5-yl)carbonyl]phenyl}-3-phenylurea] has an IC50 (TrkA) of 2 nM and an IC50 (TrkB) of less than 1 nM.
